Measurements: patent US7547660B2, “Phenyl-substituted 4-hydroxy-tetrahydropyridones” (Bayer Aktiengesellschaft, priority 2000, dated 2009)

Columns and labels:
Format in all cases: in vivo
[1] = test system: Setaria; test: Post-emergence test, greenhouse; conditions: after three weeks
Experimental: (§1) • Solvent: 5 parts by weight of acetone • Emulsifier: 1 part by weight of alkylaryl polyglycol ether
(§2) To produce a suitable preparation of active compound, 1 part by weight of active compound is mixed with the stated amount of solvent, the stated amount of emulsifier is added and the concentrate is diluted with water to the desired concentration.
(§3) Test plants of a height of 5-15 cm are sprayed with the preparation of active compound such that the particular amounts of active compound desired are applied per unit area. The concentration of the spray liquor was chosen such that the particular amounts of active compound desired are applied in 1 000 l of water/ha.
(§4) After three weeks, the degree of damage to the plants is rated in % damage in comparison to the development of the untreated control.
(§5) The figures denote: • 0%=no effect (like untreated control) • 100%=total destruction

[2] = test system: Alopecurus; test: Post-emergence test, greenhouse; conditions: 2 000 g/ha, after three weeks
Experimental: as §1, §2, §3, §4, §5

[3] = test system: Echinochloa; test: Post-emergence test, greenhouse; conditions: after three weeks
Experimental: as §1, §2, §3, §4, §5

[4] = test system: Sugar beet; test: Post-emergence test, greenhouse; conditions: after three weeks
Experimental: as §1, §2, §3, §4, §5

[5] = test system: Amaranthus; test: Post-emergence test, greenhouse; conditions: after three weeks
Experimental: as §1, §2, §3, §4, §5

[6] = test system: Setaria; test: Pre-emergence test, greenhouse; conditions: after three weeks
Experimental: as §1
(§6) To produce a suitable preparation of active compound, 1 part by weight of active compound is mixed to the stated amount of solvent, the stated amount of emulsifier is added and the concentrate is diluted with water to the desired concentration.
(§7) Seeds of the test plants are sown in normal soil. After about 24 hours, the soil is sprayed with the preparation of active compounds such that the particular amounts of active compound desired are applied per unit area. The concentration of the spray liquor is chosen such that the particular amounts of active compound desired are applied in 1 000 l of water/ha.
as §4, §5

[7] = test system: Wheat; test: Pre-emergence test, greenhouse; conditions: 250 g/ha, after three weeks
Experimental: as §1, §6, §7, §4, §5

[8] = test system: Digitaria; test: Pre-emergence test, greenhouse; conditions: 250 g/ha, after three weeks
Experimental: as §1, §6, §7, §4, §5

[9] = test system: Soya; test: Pre-emergence test, greenhouse; conditions: 250 g/ha, after three weeks
Experimental: as §1, §6, §7, §4, §5

[10] = test system: Echinochloa; test: Pre-emergence test, greenhouse; conditions: after three weeks
Experimental: as §1, §6, §7, §4, §5

[11] = test system: Lolium; test: Pre-emergence test, greenhouse; conditions: 250 g/ha, after three weeks
Experimental: as §1, §6, §7, §4, §5

[12] = test system: Tetranychus urticae; test: Tetranychus test (OP-resistent/dip treatment); conditions: 100 ppm active compound; after 7 days; bean plants dipped
Experimental: Tetranychus Test (OP-Resistent/Dip Treatment)
• Solvent: 30 parts by weight of dimethylformamide • Emulsifier: 1 part by weight of alkylaryl polyglycol ether
To produce a suitable preparation of active compound, 1 part by weight of active compound is mixed with the stated amounts of solvent and emulsifier, and the concentrate is diluted with emulsifier-containing water to the desired concentration.
Bean plants (Phaseolus vulgaris) which are heavily infested by all stages of the greenhouse […] spider mite (Tetranychus urticae) are treated by being dipped into a preparation of active compound of the desired concentration.
After the desired period of time, the effect in % is determined. 100% means that all spider mites have been killed; 0% means that none of the spider mites have been killed.

[13] = test system: Meloidogyne incognita; test: Meloidogyne test; conditions: 20 ppm active compound; after 14 days; lettuce
Experimental: Meloidogyne Test • Solvent: 30 parts by weight of dimethylformamide • Emulsifier: 1 part by weight of alkylaryl polyglycol ether To produce a suitable preparation of active compound, 1 part by weight of active compound is mixed with the stated amounts of solvent and emulsifier, and the concentrate is diluted with water to the desired concentration. Containers are filled with sand, solution of active compound, Meloidogyne incognita egg/larvae suspension and lettuce seeds. The lettuce seeds germinate and the plants develop. On the roots, galls are formed. After the desired period of time, the nematicidal action in % is determined using the formation of galls as a measure. 100% means that no galls have been found; 0% means that the number of galls on the treated plants corresponds to that on the untreated control.

[14] = test system: Avena fatua; test: Post-emergence test, greenhouse; conditions: 2 000 g/ha, after three weeks
Experimental: as §1, §2, §3, §4, §5

[15] = test system: Alopecurus; test: Pre-emergence test, greenhouse; conditions: after three weeks
Experimental: as §1, §6, §7, §4, §5

[16] = test system: Avena fatua; test: Pre-emergence test, greenhouse; conditions: 2 000 g/ha, after three weeks
Experimental: as §1, §6, §7, §4, §5

[17] = test system: Galium; test: Pre-emergence test, greenhouse; conditions: 500 g/ha, after three weeks
Experimental: as §1, §6, §7, §4, §5

[18] = test system: Amaranthus; test: Pre-emergence test, greenhouse; conditions: 500 g/ha, after three weeks
Experimental: as §1, §6, §7, §4, §5

**Q.** What does the source list for Cc1cc(Br)cc(Cl)c1C1=C(O)CC(C)(C)NC1=O [I-a-10]?
**A.** % damage Setaria ([1]; 2 000 g/ha): 80%; % damage Alopecurus [2]: 70%; % damage Echinochloa ([3]; 2 000 g/ha): 80%; % damage Sugar beet ([4]; 2 000 g/ha): 0%; % damage Amaranthus ([5]; 2 000 g/ha): 70%; % damage Setaria ([6]; 250 g/ha): 95%; % damage Wheat [7]: 0%; % damage Digitaria [8]: 90%; % damage Soya [9]: 0%; % damage Echinochloa ([10]; 250 g/ha): 80%; % damage Lolium [11]: 100%

**Q.** What does the source list for CCOC(=O)OC1=C(c2cc(-c3ccc(Cl)cc3)ccc2C)C(=O)NC(C)(C)C1 [I-c-1]?
**A.** % damage Setaria ([1]; 250 g/ha): 80%; % damage Echinochloa ([3]; 250 g/ha): 70%; % damage Sugar beet ([4]; 250 g/ha): 0%; % damage Amaranthus ([5]; 250 g/ha): 80%; kill of spider mites [12]: 95%

**Q.** Cc1ccc(Br)cc1C1=C(O)CC(C)(C)NC1=O [I-a-4] was tested. Which “kill (nematicidal action, formation of galls as measure)” value [13] did it give?
**A.** 95%

**Q.** How did the “% damage Setaria” value ([1]; 2 000 g/ha) turn out when CCc1cc(Br)cc(Cl)c1C1=C(O)CC(C)(C)NC1=O [I-a-11] was run?
**A.** 100%

**Q.** And the “% damage Alopecurus” value [2]?
**A.** 95%

**Q.** What about the “% damage Avena fatua” value [14] of the same compound?
**A.** 100%

**Q.** What about the “% damage Echinochloa” value ([3]; 2 000 g/ha) of the same compound?
**A.** 100%

**Q.** What about the “% damage Sugar beet” value ([4]; 2 000 g/ha) of the same compound?
**A.** 90%

**Q.** What about the “% damage Setaria” value ([6]; 2 000 g/ha) of the same compound?
**A.** 100%

**Q.** And the “% damage Alopecurus” value ([15]; 2 000 g/ha)?
**A.** 100%

**Q.** And the “% damage Avena fatua” value [16]?
**A.** 100%

**Q.** What about the “% damage Echinochloa” value ([10]; 2 000 g/ha) of the same compound?
**A.** 100%

**Q.** Which “% damage Alopecurus” value ([15]; 500 g/ha) does the source give for Cc1cc(Cl)cc(Cl)c1C1=C(O)CC(C)(C)NC1=O [I-a-3] here?
**A.** 70%

**Q.** And the “% damage Galium” value [17]?
**A.** 100%

**Q.** And the “% damage Amaranthus” value [18]?
**A.** 70%

**Q.** With Cc1ccc(-c2ccc(Cl)cc2)cc1C1=C(O)CC(C)(C)NC1=O [I-a-5] as the compound, how does the “kill of spider mites” value [12] read?
**A.** 99%
